Results published in ChEMBL document CHEMBL1149970, “Novel dithiocarbamate carbapenems1 with anti-MRSA activity” (Bioorg Med Chem Lett, 1997).
≈ marks a conversion by molar mass, not a printed value.

Legend:
Mus musculus = species: Mus musculus; assay: Compound was measured for binding rate for mouse serum at a carbapenem concentration of 10 ug/mL; type: functional
Escherichia coli = assay: In vitro antibacterial activity against Escherichia coli NIHJ JC2 organism; type: functional
[1] = system: Staphylococcus epidermidis; assay: In vitro antibacterial activity against Staphylococcus epidermidis MB5181a organism; type: functional; conditions: Staphylococcus epidermidis; read-out: MIC
Rattus norvegicus = assay: Epileptogenicity of compound was measured at 100 ug/rat head by the rat intraventricular assay; 0/5; type: functional, Cerebral ventricle
Staphylococcus aureus [2] = assay: In vitro antibacterial activity against staphylococcus aureus 209P NIHJ JC1 organism; type: functional
Pseudomonas aeruginosa = assay: In vitro antibacterial activity against Pseudomonas aeruginosa MB5002 organism; type: functional
Staphylococcus aureus [3] = assay: Compound was tested in vitro for its anti-methicillin-resistant staphylococcus aureus(MRSA); 0.78-3.13; type: functional
Staphylococcus aureus [4] = assay: Compound was tested in vivo for its anti-methicillin-resistant staphylococcus aureus(MRSA); type: functional
[5] = Compound was measured for binding rate for human serum at a carbapenem concentration of 10 ug/mL; type: ADME; conditions: read-out: Protein binding (converted)
Staphylococcus aureus [6] = assay: In vitro antibacterial activity against staphylococcus aureus CSa1009 (Methicillin-resistant strain and b beta-Lactamase producing strain); type: functional
[7] = target: T1, Dipeptidase 1 (Sus scrofa) (UniProt P22412); assay: Relative rate of hydrolysis of porcine renal dehydropeptidase-I (DHP-I) to imipenem; type: functional
T1 sequence (whole entry): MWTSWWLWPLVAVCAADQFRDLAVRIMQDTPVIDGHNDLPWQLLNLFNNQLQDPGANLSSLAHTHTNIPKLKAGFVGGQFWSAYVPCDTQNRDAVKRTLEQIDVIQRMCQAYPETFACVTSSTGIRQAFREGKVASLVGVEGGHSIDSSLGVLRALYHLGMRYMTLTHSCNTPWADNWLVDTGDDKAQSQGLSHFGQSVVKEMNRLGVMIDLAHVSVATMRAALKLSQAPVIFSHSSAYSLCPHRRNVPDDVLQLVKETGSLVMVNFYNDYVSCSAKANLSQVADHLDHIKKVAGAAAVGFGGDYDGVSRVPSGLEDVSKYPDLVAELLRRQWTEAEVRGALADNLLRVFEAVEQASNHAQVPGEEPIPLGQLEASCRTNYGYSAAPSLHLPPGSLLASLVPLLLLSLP

Staphylococcus aureus [8] = assay: In vitro antibacterial activity against staphylococcus aureus BB6294 organism (Methicillin-resistant strain); type: functional
Enterococcus faecalis = assay: In vitro antibacterial activity against Enterococcus faecalis MB4996 organism; type: functional
[9] = target: T1, Dipeptidase 1 (Sus scrofa); assay: Compound was measured for DHP-I susceptibility; type: functional
Staphylococcus aureus [10] = assay: PBP-2'' affinity was determined by the competition assay with [14C]benzylpenicillin using membrane isolated from MRSA BB6294 strain; type: functional

SMILES | PPB (Mus musculus) [%] | MIC (Escherichia coli) [µg/mL] | MIC [1] [µg/mL] | Epileptogenicity (Rattus norvegicus) | MIC (Staphylococcus aureus [2]) [µg/mL] | MIC (Pseudomonas aeruginosa) [µg/mL] | MIC (Staphylococcus aureus [3]) [µg/mL] | ED50 (Staphylococcus aureus [4]) [mg/kg] | fraction unbound at 10 ug/mL [5] | MIC (Staphylococcus aureus [6]) [µg/mL] | DHP-I susceptibility [7] | MIC (Staphylococcus aureus [8]) [µg/mL] | MIC (Enterococcus faecalis) [µg/mL] | DHP-I susceptibility [9] | IC50 (Staphylococcus aureus [10]) [µg/mL] | ED50 (Staphylococcus aureus [4]; Staphylococcus aureus) [mg/kg]
C[C@@H](O)[C@H]1C(=O)N2C(C(=O)O)=C(SC(=S)N(C)Cc3cccc4ccccc34)[C@H](C)[C@H]12 | 99 | 25 (≈ 54.8 µM) | 0.39 (≈ 0.854 µM) | 0 | < 0.006 | > 25 | 1.15 (≈ 2.52 µM) | > 50 | 0.01 | 1.56 (≈ 3.42 µM) | 4.41 | 0.78 (≈ 1.71 µM) | 1.56 (≈ 3.42 µM) | 4.41 |  | 
C[C@@H](O)[C@H]1C(=O)N2C(C(=O)O)=C(SCCNC=N)C[C@H]12 [IMIPENEM ANHYDROUS] |  | 0.1 (≈ 0.334 µM) | 100 (≈ 334 µM) |  | < 0.006 | 1.56 (≈ 5.21 µM) |  |  |  | 100 (≈ 334 µM) | 1 | 100 (≈ 334 µM) | 0.78 (≈ 2.61 µM) |  | 125 (≈ 418 µM) | > 200
